Data reported in ChEMBL document CHEMBL4261595, “Discovery of 3-(4-sulfamoylnaphthyl)pyrazolo[1,5-a]pyrimidines as potent and selective ALK2 inhibitors” (Bioorg Med Chem Lett, 2018).
Converted amounts (≈) assume the structure as drawn.

Tests used:
[1] = rat, microsomes
physchem = conditions: aqueous, pH 7.4
[2] = Permeability of the compound by PAMPA; type: ADME; conditions: read-out: permeability
[3] = Cmax in C57BL/6 mouse at 3 mg/kg, po; type: ADME, organism-based; design: dose 3 mg/kg, route oral; conditions: in vivo
[4] = Oral bioavailability in C57BL/6 mouse at 3 mg/kg; type: ADME, organism-based; conditions: in vivo
[5] = AUC (0 to infinity) in C57BL/6 mouse at 3 mg/kg, iv; type: ADME, organism-based; design: dose 3 mg/kg, time infinity, route intravenous; conditions: in vivo
[6] = Half life in C57BL/6 mouse at 3 mg/kg, po; type: ADME, organism-based; conditions: in vivo
[7] = Half life in C57BL/6 mouse at 3 mg/kg, iv; type: ADME, organism-based; conditions: in vivo
[8] = Clearance in C57BL/6 mouse plasma at 3 mg/kg, iv; type: ADME, organism-based
[9] = Volume of distribution at steady state in C57BL/6 mouse at 3 mg/kg, iv; type: ADME, organism-based; conditions: in vivo, read-out: Vdss
[10] = AUC (0 to infinity) in C57BL/6 mouse at 3 mg/kg, po; type: ADME, organism-based; design: dose 3 mg/kg, time infinity, route oral; conditions: in vivo

`NS(=O)(=O)c1ccc(-c2cnn3cc(-c4ccc(C5CCNCC5)cc4)cnc23)c2ccccc12` showed a t1/2 [1] of over 30 min, a solubility (physchem) of under 1 µg/mL and a Papp [2] of 78.6 ×10⁻⁶ cm/s.
Molecule `CC(C)(CN1CCCCC1)Oc1ccc(-c2cnc3c(-c4ccc(S(N)(=O)=O)c5ccccc45)cnn3c2)cc1` has a t1/2 [1] of 6.1 min and a solubility (physchem) of under 1 µg/mL.
Molecule `NC1(c2ccc(-c3cnc4c(-c5ccc(S(N)(=O)=O)c6ccccc56)cnn4c3)cc2)CCC1` has a solubility (physchem) of under 1 µg/mL.
`CN(C)CCOc1ccc(-c2cnc3c(-c4ccc(S(N)(=O)=O)c5ccccc45)cnn3c2)cn1` showed a t1/2 [1] of 9.4 min, a solubility (physchem) of under 1 µg/mL and a Papp [2] of 8.8 ×10⁻⁶ cm/s.
`NS(=O)(=O)c1ccc(-c2cnn3cc(-c4ccc(N5CCNCC5)nc4)cnc23)c2ccccc12` gave a t1/2 [1] of over 30 min, a solubility (physchem) of 1.4 µg/mL (≈ 2.88 µM) and a Papp [2] of 8.3 ×10⁻⁶ cm/s.
`NS(=O)(=O)c1ccc(-c2cnn3cc(-c4ccc(CN5CCCC5)cc4)cnc23)c2ccccc12` gave a t1/2 [1] of 21.9 min, a solubility (physchem) of 8 µg/mL (≈ 16.5 µM) and a Papp [2] of 467 ×10⁻⁶ cm/s.
`CC(C)(N)c1ccc(-c2cnc3c(-c4ccc(S(N)(=O)=O)c5ccccc45)cnn3c2)cc1` gave a t1/2 [1] of over 30 min, a solubility (physchem) of 10.6 µg/mL (≈ 23.2 µM) and a Papp [2] of 9.4 ×10⁻⁶ cm/s.
With `CC(c1ccc(-c2cnc3c(-c4ccc(S(N)(=O)=O)c5ccccc45)cnn3c2)cc1)N1CCCC1` (stereo not given) the Cmax [3] was 67 ng/mL, the bioavailability [4] was 24% and the AUC(0-inf) [5] was 3220 ng·h/mL. The half-life [6] was 258 min, the t1/2 [1] was 22.8 min and the half-life [7] was 210 min. The clearance [8] was 16 mL/min/kg, the Vd [9] was 4.6 L/kg and the AUC(0-inf) [10] was 782 ng·h/mL. For the same molecule, the solubility (physchem) was 7 µg/mL (≈ 14.1 µM).
For `NS(=O)(=O)c1ccc(-c2cnn3cc(-c4ccc(OCCN5CCCC5)cc4)cnc23)c2ccccc12`, the t1/2 [1] was over 30 min, the solubility (physchem) was 33 µg/mL (≈ 64.2 µM) and the Papp [2] was 317 ×10⁻⁶ cm/s.
In the case of `NS(=O)(=O)c1ccc(-c2cnn3cc(-c4ccc(OCCN5CCCCC5)nc4)cnc23)c2ccccc12`, the t1/2 [1] was 20.9 min, the solubility (physchem) was under 1 µg/mL and the Papp [2] was 365 ×10⁻⁶ cm/s.
Work on `CC(N)c1ccc(-c2cnc3c(-c4ccc(S(N)(=O)=O)c5ccccc45)cnn3c2)cc1` (stereo not given) yielded a solubility (physchem) of 7.6 µg/mL (≈ 17.1 µM).
